In DBAASP:
≈ marks a conversion by molar mass, not a printed value.

Key:
Assay in all cases: ≥ marks a high value that may be exact or a test limit, other limits are often not marked, values filed in µg/mL are converted to µM
[1] = test system: Acinetobacter baumannii NM8
[2] = test system: Escherichia coli ATCC 25726
[3] = test system: Stenotrophomonas maltophilia B32/4
[4] = test system: Staphylococcus epidermidis RP62A
[5] = test system: Candida albicans ATCC 90028
[6] = test system: Klebsiella pneumoniae ATCC 700603
[7] = test system: Staphylococcus aureus ATCC 25923
[8] = test system: Staphylococcus epidermidis RP62A/1
[9] = test system: Pseudomonas aeruginosa ATCC 27853
Nocardia brasiliensis = test system: Nocardia brasiliensis
Cryptococcus neoformans = test system: Cryptococcus neoformans
Trichophyton rubrum = test system: Trichophyton rubrum
Trichophyton simii = test system: Trichophyton simii
Candida albicans = test system: Candida albicans
Aspergillus niger = test system: Aspergillus niger
Aeromonas caviae = test system: Aeromonas caviae
Enterococcus faecalis = test system: Enterococcus faecalis
Escherichia coli = test system: Escherichia coli
Aspergillus fumigatus = test system: Aspergillus fumigatus
Microsporum canis = test system: Microsporum canis
[10] = test system: Batrachochytrium dendrobatidis JEL-197
Vibrio alginolyticus = test system: Vibrio alginolyticus
[11] = test system: Helicobacter pylori ATCC 43504
Vibrio vulnificus 204 = test system: Vibrio vulnificus 204
Helicobacter pylori = test system: Helicobacter pylori
[12] = test system: Helicobacter pylori ATCC 43629
[13] = test system: Helicobacter pylori ATCC 700392
[14] = test system: Enterococcus faecalis BCRC 10066
[15] = test system: Streptococcus agalactiae 819
[16] = test system: Streptococcus agalactiae BCRC 10787
[17] = test system: Pseudomonas aeruginosa ATCC 19660
[18] = test system: Aeromonas hydrophila BCRC 13018
Bacillus subtilis = test system: Bacillus subtilis
Morganella morganii = test system: Morganella morganii
[19] = test system: Escherichia coli DH5alpha
Staphylococcus aureus = test system: Staphylococcus aureus
[20] = test system: Staphylococcus haemolyticus
Salmonella enterica = test system: Salmonella enterica
Staphylococcus warneri = test system: Staphylococcus warneri
[21] = test system: Staphylococcus saprophyticus
Enterococcus faecium = test system: Enterococcus faecium
[22] = test system: Escherichia coli K-12 D31
Saccharomyces cerevisiae = test system: Saccharomyces cerevisiae

## CC[C@H](C)[C@H](N)C(=O)N[C@@H](CC(C)C)C(=O)NCC(=O)N[C@@H](C)C(=O)N[C@H](C(=O)N[C@@H](CC(C)C)C(=O)N1CCC[C@H]1C(=O)N[C@@H](CC(C)C)C(=O)N[C@H](C(=O)N[C@@H](CO)C(=O)NCC(=O)N[C@@H](CC(C)C)C(=O)N[C@@H](CC(C)C)C(=O)N[C@@H](CO)C(=O)N[C@@H](CC(N)=O)C(=O)N[C@@H](CCCCN)C(=O)N[C@@H](CC(C)C)C(N)=O)C(C)C)[C@@H](C)CC [ILGAILPLVSGLLSNKL]
[1]
  MIC: ≥ 128 µM
[2]
  MIC: ≥ 256 µM
[3]
  MIC: ≥ 256 µM
[4]
  MIC: ≥ 128 µM
[5]
  MIC: ≥ 64 µM
[6]
  MIC: > 256 µM
[7]
  MIC: 128 µM (≈ 220 µg/mL)
[8]
  MIC: ≥ 128 µM
[9]
  MIC: > 256 µM

## CC[C@H](C)[C@H](NC(=O)[C@H](Cc1ccc(O)cc1)NC(=O)[C@H](Cc1cnc[nH]1)NC(=O)[C@H](CCCN=C(N)N)NC(=O)[C@H](CC(C)C)NC(=O)[C@H](C)NC(=O)[C@@H](NC(=O)[C@H](CC(C)C)NC(=O)[C@H](Cc1ccc(O)cc1)NC(=O)[C@H](CCCCN)NC(=O)[C@H](CC(N)=O)NC(=O)[C@H](CCSC)NC(=O)[C@H](CCC(=O)O)NC(=O)[C@H](CCC(=O)O)NC(=O)[C@@H]1CCCN1)[C@@H](C)O)C(=O)N[C@@H](CC(N)=O)C(=O)N[C@@H](CC(C)C)C(=O)N[C@H](C(=O)N[C@H](C(=O)N[C@@H](CCCN=C(N)N)C(=O)N[C@@H](CCC(N)=O)C(=O)N[C@@H](CCCN=C(N)N)C(=O)N[C@@H](Cc1ccc(O)cc1)C(N)=O)[C@@H](C)O)C(C)C [PEEMNKYLTALRHYINLVTRQRY]
Nocardia brasiliensis
  MIC: 6.87 µM (≈ 20 µg/mL)
Cryptococcus neoformans
  MIC: 6.87 µM (≈ 20 µg/mL)
Trichophyton rubrum
  MIC: 5.16 µM (≈ 15 µg/mL)
Trichophyton simii
  MIC: 3.44 µM (≈ 10 µg/mL)
Candida albicans
  MIC: 5.16 µM (≈ 15 µg/mL)
Aspergillus niger
  MIC: ≥ 34.4 µM
Aeromonas caviae
  MIC: 13.7 µM (≈ 40 µg/mL)
Enterococcus faecalis
  MIC: 3.44 µM (≈ 10 µg/mL)
Escherichia coli
  MIC: 3.44 µM (≈ 10 µg/mL)
Aspergillus fumigatus
  MIC: 27.5 µM (≈ 80 µg/mL)
Microsporum canis
  MIC: 3.44 µM (≈ 10 µg/mL)

## CC[C@H](C)[C@H](NC(=O)[C@H](CO)NC(=O)[C@@H]1CCCN1C(=O)[C@@H](NC(=O)[C@H](CC(C)C)NC(=O)CNC(=O)[C@@H](NC(=O)[C@H](CC(C)C)NC(=O)[C@@H](NC(=O)[C@@H]1CCCN1C(=O)[C@H](CC(C)C)NC(=O)[C@@H](N)Cc1ccccc1)C(C)C)[C@@H](C)O)[C@@H](C)O)C(=O)N[C@H](C(=O)N1CCC[C@H]1C(=O)N[C@@H](CCCCN)C(=O)N[C@@H](CC(C)C)C(=O)N[C@H](C(=O)N[C@H]1CSSC[C@@H](C(=O)O)NC(=O)[C@H](CCCCN)NC(=O)[C@H](CCCCN)NC(=O)[C@H]([C@@H](C)O)NC(=O)[C@H](CC(C)C)NC(=O)[C@H](CC(C)C)NC1=O)C(C)C)C(C)C [FLPVLTGLTPSIVPKLVCLLTKKC]
[2]
  MIC: ≥ 100 µM
[10]
  MIC: ≥ 50 µM
[5]
  MIC: ≥ 100 µM
[7]
  MIC: 50 µM (≈ 129 µg/mL)

## CC[C@H](C)[C@H](NC(=O)[C@H](CC(C)C)NC(=O)[C@H](CCC(=O)O)NC(=O)[C@H](CCC(N)=O)NC(=O)[C@H](CC(C)C)NC(=O)[C@@H](NC(=O)[C@H](CCCCN)NC(=O)[C@H](CCC(N)=O)NC(=O)[C@@H](NC(=O)[C@@H](NC(=O)[C@H](CCC(=O)O)NC(=O)CNC(=O)[C@H](CO)NC(=O)[C@@H](NC(=O)[C@H](CCC(N)=O)NC(=O)[C@H](CCCCN)NC(=O)CNC(=O)[C@H](CCC(N)=O)NC(=O)[C@H](CC(C)C)NC(=O)[C@@H](N)CCC(N)=O)C(C)C)C(C)C)C(C)C)C(C)C)C(=O)N[C@@H](CCC(N)=O)C(=O)N[C@@H](CO)C(=O)N[C@H](C(=O)N[C@@H](C)C(=O)N[C@@H](CCCCN)C(=O)N1CCC[C@H]1C(N)=O)C(C)C [QLQGKQVSGEVVQKVLQELIQSVAKP]
Vibrio alginolyticus
  MIC: 6.22 µM (≈ 17.6 µg/mL)
[11]
  MIC: 4.23 µM (≈ 12 µg/mL)
Vibrio vulnificus 204
  MIC: 6.22 µM (≈ 17.6 µg/mL)
Helicobacter pylori
  MIC: 4.23 µM (≈ 12 µg/mL)
[12]
  MIC: 4.23 µM (≈ 12 µg/mL)
[13]
  MIC: 4.23 µM (≈ 12 µg/mL)
[14]
  MIC: 6.22 µM (≈ 17.6 µg/mL)
[15]
  MIC: 6.22 µM (≈ 17.6 µg/mL)
[16]
  MIC: 6.22 µM (≈ 17.6 µg/mL)
[17]
  MIC: 6.22 µM (≈ 17.6 µg/mL)
[18]
  MIC: 6.22 µM (≈ 17.6 µg/mL)

## CC[C@H](C)[C@H](NC(=O)[C@H](CC(C)C)NC(=O)[C@H](CCCCN)NC(=O)CNC(=O)[C@H](C)NC(=O)[C@H](Cc1cnc[nH]1)NC(=O)[C@@H](NC(=O)[C@H](CC(C)C)NC(=O)CNC(=O)[C@H](Cc1cnc[nH]1)NC(=O)[C@H](Cc1ccccc1)NC(=O)[C@@H](NC(=O)[C@H](CC(C)C)NC(=O)CNC(=O)[C@H](CC(C)C)NC(=O)[C@@H](N)Cc1ccccc1)[C@@H](C)CC)C(C)C)C(=O)N[C@@H](Cc1cnc[nH]1)C(=O)NCC(=O)N[C@@H](CC(C)C)C(=O)N[C@H](C(=O)N[C@@H](Cc1cnc[nH]1)C(=O)N[C@@H](CCCN=C(N)N)C(=O)N[C@@H](CC(N)=O)C(=O)N[C@@H](CCCN=C(N)N)C(=O)NCC(=O)O)[C@@H](C)CC [FLGLIFHGLVHAGKLIHGLIHRNRG]
Bacillus subtilis
  MIC: ≥ 48 µM
Morganella morganii
  MIC: 12 µM (≈ 33.3 µg/mL)
[19]
  MIC: 7.5 µM (≈ 20.8 µg/mL)
Candida albicans
  MIC: 96 µM (≈ 267 µg/mL)
Staphylococcus aureus
  MIC: 1.5 µM (≈ 4.16 µg/mL)
[20]
  MIC: 7.5 µM (≈ 20.8 µg/mL)
Salmonella enterica
  MIC: 6 µM (≈ 16.7 µg/mL)
Staphylococcus warneri
  MIC: 15 µM (≈ 41.6 µg/mL)
[21]
  MIC: 7.5 µM (≈ 20.8 µg/mL)
Enterococcus faecium
  MIC: 15 µM (≈ 41.6 µg/mL)
[22]
  MIC: 3 µM (≈ 8.33 µg/mL)
Saccharomyces cerevisiae
  MIC: ≥ 384 µM
